Converted amounts (≈) assume the structure as drawn. “And” between values parts separate entries of the source, which are not always exact repeats. Identical values can stand only once. Like-named read-outs stand apart in the source and are kept apart here.
Columns and labels:
Haemolysis assay = assay type: cell-based; details: human, whole blood
Protocol: Haemolytic activity was measured as previously described with slight modifications, [45]. Fresh human venal blood was collected from healthy volunteers and pretreated with the anticoagulant sodium citrate. Serial twofold dilutions of each antibiotic, dissolved in 0.9% NaCl solution, were added to fresh human whole blood (50% final, vol:vol) to the final volume of 80 μL and incubated at 37 °C for 3 h on a horizontal shaker at 200 rpm. For negative and positive controls, human whole blood in 0.9% NaCl solution (A blank) and in sdH2O (A water) were used, respectively. After incubation, both test and A blank were mixed with 1 mL 0.9% NaCl solution, or sdH2O for the complete […] A water. After centrifugation of samples at 2500 rpm (700 × g) for 5 min, the release of haemoglobin was monitored by measuring the absorbance (A sample) of the supernatant at 540 nm using BMG Labtech PolarStar Omega multimode reader. The percentage of haemolysis was calculated according to the equation: %haemolysis=Asample-Ablank∕Awater-Ablank×100

[1] = test system: Bacillus subtilis ATCC 6633; test: microbe, parasite or virus in culture; assay type: cell-based; details: for Ac2Kaa concentration required to neutralise MIC activity / MIC: ATCC 6633, 48 h
in vitro = details: human, 50% human plasma (pooled, sodium heparin) in PBS, pH 7.4
Protocol: (§2) Briefly, test compounds (20 μM) were prepared from a 0.2 mM H2O stock solution (40 μL in 400 μL assay volume) except eucatropine, which was 300 μg mL^−1 in 100% DMSO (10 μL in 400 μL assay volume equivalent to 23 μM). The precipitating solution was prepared by adding 5 μL of 10 mM carbutamide in DMSO to 100 mL acetonitrile (final concentration: 135.5 ng mL^−1 or 0.5 μM carbutamide). The human plasma sample (pooled normal human plasma sodium heparin anticoagulant, 2 µL, Cat No.: [sequence], BioReclamation) and phosphate-buffer saline (PBS, pH 7.4 isotonic) were pre-heated at 37 °C for 30 min. 40 μL of test compounds (0.2 mM) were added to protein-low binding Eppendorf tubes, 160 μL of buffer was added, and the mixture was vortexed. For eucatropine, 10 μL of eucatropine (300 μg mL^−1) was added to a protein-low binding Eppendorf tube, 190 μL of buffer was added, and the mixture was vortexed. In each case, 200 μL of plasma was added and the resultant mixture vortexed. For the initial time point (reaction time t = 0 h), 50 μL of sample was immediately transferred into a protein-low binding Eppendorf tube and quenched with 150 μL of the ice-cold precipitating solution, followed by vortexing and subsequent storage at 4 °C. For the remaining time points, the plasma solution was incubated and shaken (150 rpm) at 37 °C. 50 μL aliquots were collected at time points of 0, 1, 3, 6 and 24 h and quenched with 150 μL the ice-cold precipitating solution. All samples were placed in a 4 °C fridge for 30 min then centrifuged at 14,000 × g for 8 min at 4 °C. The supernatant (100 μL) was transferred to a glass vial insert and stored at 4 °C until LC-MS/MS analysis. The percentage of test compounds remaining at the individual time points relative to sample at time point 0 h were reported.

[2] = test system: Methicillin-resistant S. aureus ATCC 43300; test: microbe, parasite or virus in culture; details: for MIC: Staphylococcus aureus, ATCC43300|MRSA
Outline: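 MICs were determined by broth microdilution in Mueller Hinton broth. Bacteria were pregrown overnight, diluted 40-fold and regrown 2–3 h at 37 °C.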

[3] = 37 °C, 20 µM
Protocol: as §2

[4] = test system: S. pneumoniae ATCC 700677 MDR; test: microbe, parasite or virus in culture; assay type: cell-based, Streptococcus pneumoniae
Protocol: (§1) The compounds, along with standard antibiotics were serially diluted twofold across the wells of 96-well non-binding surface (NBS) polystyrene plates (Corning 3641). […] Standards ranged from 64 to 0.03 µg mL^−1 and compounds from 8 to 0.003 µg mL^−1 with final assay volumes of 100 µL per well. Gram-positive bacteria were cultured in Mueller Hinton broth (MHB) (Bactolaboratories, Cat. no. 211443) at 37 °C overnight. A sample of each culture was then diluted 40-fold in fresh MHB and incubated at 37 °C for 2–3 h. The resultant mid-log phase cultures were added to the compound-containing 96-well plates to give a final cell density of 5 × 10^5 colony forming unit (CFU) mL^−1. All the plates were covered and incubated at 37 °C for 24 h. MICs were the lowest concentration showing no visible growth.

[5] = test system: S. aureus ATCC 43300 MRSA; test: microbe, parasite or virus in culture; assay type: cell-based, Staphylococcus aureus
Protocol: as §1

In the case of CCCCCCCCCCC(=O)N[C@@H](CCCCN)C(=O)N[C@@H](CCCCN)C(=O)N[C@@H](CCCCN)C(=O)N[C@@H](CCCCNC(=O)[C@H]1NC(=O)[C@H]2NC(=O)[C@H](NC(=O)[C@@H]3NC(=O)[C@H](CC(N)=O)NC(=O)[C@H](NC(=O)[C@@H](CC(C)C)NC)[C@H](O)c4ccc(c(Cl)c4)Oc4cc3cc(c4O[C@@H]3O[C@H](CO)[C@@H](O)[C@H](O)[C@H]3O[C@H]3C[C@](C)(N)[C@H](O)[C@H](C)O3)Oc3ccc(cc3Cl)[C@H]2O)c2ccc(O)c(c2)-c2c(O)cc(O)cc21)C(=O)O [Compound 18, nC10CO-KKK-K(Vancomycin)-OH], the hemolysis at 3 h (Haemolysis assay; 100 µg mL-1) is reported as 1.4%, the hemolysis at 3 h (Haemolysis assay; 1600 µg mL-1) is reported as 1.2% and the “Ac2Kaa concentration required to neutralise MIC activity” value (shortened to “Ac2Kaa concentration required”) [1] is reported as 100 µg/mL. The MIC [1] was ≤ 0.004 µg/mL, the remaining at 1 h, 20 µM (in vitro) was 87% and the remaining at 3 h, 20 µM (in vitro) was 87%. For the same compound, the remaining at 6 h, 20 µM (in vitro) was 83%, the remaining at 24 h, 20 µM (in vitro) was 93% and the “MIC MRSA” value ([2]; ATCC 43300, 24 h) was 0.045 µg/mL (≈ 0.0211 µM). For the same compound, the “% compound remaining after incubation in 50% human plasma, 0h” value (“% compound remaining after incubation” for short) [3] was 100%.

For CNC(=O)[C@H](CCCCNC(=O)[C@H]1NC(=O)[C@H]2NC(=O)[C@H](NC(=O)[C@@H]3NC(=O)[C@H](CC(N)=O)NC(=O)[C@H](NC(=O)[C@@H](CC(C)C)NC)[C@H](O)c4ccc(c(Cl)c4)Oc4cc3cc(c4O[C@@H]3O[C@H](CO)[C@@H](O)[C@H](O)[C@H]3O[C@H]3C[C@](C)(N)[C@H](O)[C@H](C)O3)Oc3ccc(cc3Cl)[C@H]2O)c2ccc(O)c(c2)-c2c(O)cc(O)cc21)NC(=O)[C@H](CCCCN)NC(=O)[C@H](CCCCN)NC(=O)[C@H](CCCCNC(=O)c1ccc(Oc2ccccc2)cc1)NC(=O)c1ccc(Oc2ccccc2)cc1 [Compound 24, POB2K-KK-K(Vancomycin)-NHMe], the “MIC S. pneumoniae ATCC 700677 MDR” value ([4]; 5% Survanta) was 0.25 µg/mL (≈ 0.106 µM), the “MIC S. pneumoniae ATCC 700677 MDR” value ([4]; no added Survanta) was ≤ 0.003 µg/mL and the remaining at 1 h, 20 µM (in vitro) was 100%. For the same compound, the remaining at 3 h, 20 µM (in vitro) was 100%, the remaining at 6 h, 20 µM (in vitro) was 106% and the remaining at 24 h, 20 µM (in vitro) was 89%. The “MIC S. aureus ATCC 43300 MRSA, NBS” value ([2]; ATCC 43300) was ≤ 0.016 µg/mL, the “MIC S. aureus ATCC 43300 MRSA, PP” value ([2]; ATCC 43300) was 1 µg/mL (≈ 0.422 µM) and the “MIC S. aureus ATCC 43300 MRSA, PS” value ([2]; ATCC 43300) was 2 µg/mL (≈ 0.845 µM). For the same compound, the “MIC S. aureus ATCC 43300 MRSA, PS+P-80” value ([2]; ATCC 43300) was ≤ 0.016 µg/mL and the “% compound remaining after incubation” value [3] was 100%.

With CN[C@H](CC(C)C)C(=O)N[C@H]1C(=O)N[C@@H](CC(N)=O)C(=O)N[C@H]2C(=O)N[C@H]3C(=O)N[C@H](C(=O)N[C@H](C(=O)O)c4cc(O)cc(O)c4-c4cc3ccc4O)[C@H](O[C@H]3C[C@](C)(N)[C@@H](O)[C@H](C)O3)c3ccc(c(Cl)c3)Oc3cc2cc(c3O[C@@H]2O[C@H](CO)[C@@H](O)[C@H](O)[C@H]2O[C@H]2C[C@](C)(NCc3ccc(-c4ccc(Cl)cc4)cc3)[C@@H](O)[C@H](C)O2)Oc2ccc(cc2Cl)[C@H]1O [Compound 5, Oritavancin, reference compound] the MIC ([2]; 24 h, read-out: MIC MRSA, S. aureus ATCC 43300, NBS plates, MHB, 24 h, substance alone) was 0.06 µg/mL (≈ 0.0335 µM), the MIC ([2]; read-out: MIC S. aureus ATCC 43300 MRSA, NBS, non-binding surface plate) was ≤ 0.016 µg/mL and the MIC ([2]; read-out: MIC S. aureus ATCC 43300 MRSA, PP, polypropylene plate) was 1 µg/mL (≈ 0.558 µM). The MIC ([2]; read-out: MIC S. aureus ATCC 43300 MRSA, PS+P-80, polystyrene plate with 0.002% polysorbate-80) was ≤ 0.016 µg/mL and the MIC ([2]; read-out: MIC S. aureus ATCC 43300 MRSA, PS, polystyrene plate, no polysorbate-80) was 1 µg/mL (≈ 0.558 µM).

In the case of CCCCCCCCCCC(=O)N[C@@H](CCCCN)C(=O)N[C@@H](CCCCN)C(=O)N[C@@H](CCCCNC(=O)[C@H]1NC(=O)[C@H]2NC(=O)[C@H](NC(=O)[C@@H]3NC(=O)[C@H](CC(N)=O)NC(=O)[C@H](NC(=O)[C@@H](CC(C)C)NC)[C@H](O)c4ccc(c(Cl)c4)Oc4cc3cc(c4O[C@@H]3O[C@H](CO)[C@@H](O)[C@H](O)[C@H]3O[C@H]3C[C@](C)(N)[C@H](O)[C@H](C)O3)Oc3ccc(cc3Cl)[C@H]2O)c2ccc(O)c(c2)-c2c(O)cc(O)cc21)C(=O)O [Compound 19, nC10CO-KK-K(Vancomycin)-OH], the hemolysis at 3 h (Haemolysis assay; 100 µg mL-1) is reported as 0.7%, the hemolysis at 3 h (Haemolysis assay; 1600 µg mL-1) is reported as 0.5% and the “Ac2Kaa concentration required” value [1] is reported as 100 µg/mL. The MIC [1] was ≤ 0.004 µg/mL, the “MIC S. aureus ATCC 43300 MRSA, NBS” value ([2]; ATCC 43300) was ≤ 0.016 µg/mL and the “MIC S. aureus ATCC 43300 MRSA, PP” value ([2]; ATCC 43300) was 0.06 to 0.125 µg/mL. The “MIC S. aureus ATCC 43300 MRSA, PS” value ([2]; ATCC 43300) was 0.063 µg/mL (≈ 0.0315 µM), the “MIC S. aureus ATCC 43300 MRSA, PS+P-80” value ([2]; ATCC 43300) was 0.063 µg/mL (≈ 0.0315 µM) and the “MIC MRSA” value ([2]; ATCC 43300, 24 h) was 0.03 µg/mL (≈ 0.015 µM).

For CCCCCCCCCCCCCC(=O)N[C@@H](CCCCN)C(=O)N[C@@H](CCCCN)C(=O)N[C@@H](CCCCN)C(=O)N[C@@H](CCCCNC(=O)[C@H]1NC(=O)[C@H]2NC(=O)[C@H](NC(=O)[C@@H]3NC(=O)[C@H](CC(N)=O)NC(=O)[C@H](NC(=O)[C@@H](CC(C)C)NC)[C@H](O)c4ccc(c(Cl)c4)Oc4cc3cc(c4O[C@@H]3O[C@H](CO)[C@@H](O)[C@H](O)[C@H]3O[C@H]3C[C@](C)(N)[C@H](O)[C@H](C)O3)Oc3ccc(cc3Cl)[C@H]2O)c2ccc(O)c(c2)-c2c(O)cc(O)cc21)C(=O)O [Compound 17, nC13CO-KKK-K(Vancomycin)-OH], the hemolysis at 3 h (Haemolysis assay; 25 µg mL-1) was 0.15%, the hemolysis at 3 h (Haemolysis assay; 50 µg mL-1) was 0.75% and the hemolysis at 3 h (Haemolysis assay; 100 µg mL-1) was 0.65%. For the same compound, the hemolysis at 3 h (Haemolysis assay; 200 µg mL-1) was 0.85%, the hemolysis at 3 h (Haemolysis assay; 400 µg mL-1) was 0.5% and the hemolysis at 3 h (Haemolysis assay; 800 µg mL-1) was 1%. For the same compound, the hemolysis at 3 h (Haemolysis assay; 1600 µg mL-1) was 1.55%, the “Ac2Kaa concentration required” value [1] was 400 µg/mL and the MIC [1] was ≤ 0.004 µg/mL. For the same compound, the “Molar excess of Ac2Kaa ligand required to antagonise antibacterial activity” value ([1]; [ligand]/[antibiotic], B. subtilis ATCC 6633, 24 h) was 29,472, the remaining at 1 h, 20 µM (in vitro) was 79% and the remaining at 3 h, 20 µM (in vitro) was 79%. For the same compound, the remaining at 6 h, 20 µM (in vitro) was 62%, the remaining at 24 h, 20 µM (in vitro) was 66% and the “MIC S. aureus ATCC 43300 MRSA, NBS” value ([2]; ATCC 43300) was ≤ 0.016 µg/mL. The “MIC S. aureus ATCC 43300 MRSA, PP” value ([2]; ATCC 43300) was 1 µg/mL (≈ 0.46 µM), the “MIC S. aureus ATCC 43300 MRSA, PS+P-80” value ([2]; ATCC 43300) was ≤ 0.016 µg/mL and the “MIC MRSA” value ([2]; ATCC 43300, 24 h) was <0.003 µg/mL. For the same compound, the “MIC S. aureus ATCC 43300 MRSA, PS” value ([2]; polystyrene plate, no polysorbate-80) was 1 µg/mL and 1 to 2 µg/mL and the “% compound remaining after incubation” value [3] was 100%.

In the case of CCCCCCCCCCC(=O)N[C@@H](CCCCN)C(=O)N[C@@H](CCCCN)C(=O)N[C@@H](CCCCNC(=O)[C@H]1NC(=O)[C@H]2NC(=O)[C@H](NC(=O)[C@@H]3NC(=O)[C@H](CC(N)=O)NC(=O)[C@H](NC(=O)[C@@H](CC(C)C)NC)[C@H](O)c4ccc(c(Cl)c4)Oc4cc3cc(c4O[C@@H]3O[C@H](CO)[C@@H](O)[C@H](O)[C@H]3O[C@H]3C[C@](C)(N)[C@H](O)[C@H](C)O3)Oc3ccc(cc3Cl)[C@H]2O)c2ccc(O)c(c2)-c2c(O)cc(O)cc21)C(N)=O [Compound 21, nC10CO-KK-K(Vancomycin)-NH2], the “MIC S. aureus ATCC 43300 MRSA” value ([5]; 1% Survanta) is reported as 0.007 µg/mL (≈ 0.0035 µM), the “MIC S. aureus ATCC 43300 MRSA” value ([5]; 5% Survanta) is reported as 0.03 µg/mL (≈ 0.015 µM) and the “MIC S. aureus ATCC 43300 MRSA” value ([5]; no added Survanta) is reported as 0.015 µg/mL (≈ 0.0075 µM). The “MIC MRSA” value ([2]; S. aureus ATCC 43300, NBS plates, MHB, 24 h, substance alone) was 0.007 µg/mL (≈ 0.0035 µM).

From publication PMC5750218, “Protein-inspired antibiotics active against vancomycin- and daptomycin-resistant bacteria” (Nature Communications, 2018)
